Measurements taken from patent US20060183119A1, “Method for determining predisposition to a physiological reaction in a patient” (UNIVERSITE LAVAL, priority 2002, published 2006).
Numbering of substitutions follows the chain as printed. Where “and” joins values, the source holds several entries; their conditions need not be identical. Equal values may be shown once. Read-outs that look alike come from different tables or passages of the source.

Tests used:
human UGT1A9*1 = biological target: T1, human UGT1A9*1 (Homo sapiens, UniProt O60656); conditions: SN-38 glucuronidation
T1 sequence (O60656 26-530): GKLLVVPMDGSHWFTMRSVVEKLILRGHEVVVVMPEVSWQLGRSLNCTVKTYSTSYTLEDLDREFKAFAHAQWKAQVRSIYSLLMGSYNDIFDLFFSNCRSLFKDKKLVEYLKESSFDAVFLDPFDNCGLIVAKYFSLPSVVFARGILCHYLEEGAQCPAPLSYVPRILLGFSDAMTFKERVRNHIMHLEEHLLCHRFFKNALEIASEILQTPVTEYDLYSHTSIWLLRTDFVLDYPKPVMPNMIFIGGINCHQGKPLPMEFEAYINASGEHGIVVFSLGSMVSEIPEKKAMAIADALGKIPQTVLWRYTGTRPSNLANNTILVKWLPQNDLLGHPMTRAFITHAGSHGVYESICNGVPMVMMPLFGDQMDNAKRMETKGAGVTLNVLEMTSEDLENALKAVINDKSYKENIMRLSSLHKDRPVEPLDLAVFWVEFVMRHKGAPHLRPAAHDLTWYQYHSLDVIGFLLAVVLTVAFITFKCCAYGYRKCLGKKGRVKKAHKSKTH
Protocol: (§1) Microsomal fractions from HEK-293 cells stably expressing human UGT1A9*1, UGT1A9*2 and UGT1A9*3 were used in enzymatic assays. Reactions (100 μl volume) contained 50 mM Tris-HCl, pH 7.3, 10 mM MgCl2, 100 μg/mL phosphatidylcholine, 1 mM UDP-glucuronic acid, 40 to 60 μg of membrane protein. […] Human liver microsome were incubated in the same condition for control. Reaction was stopped by the addition of 200 μL MeOH+1% HCl 2N, followed by centrifugation at 14000 rpm for 10 minutes. Supernatant was filtered through a 0.22 μm filter and 100 μL of water was added. For SN-38 and SN-38-glucuronide detection, 10 μL samples were injected on a liquid chromatographic system coupled to a fluorescence detector. Time-course experiments were realized to determine the linearity of the glucuronidation reaction.
(§2) A liquid chromatographic method was developed to quantify SN-38 glucuronidation of UGT cell line-derived microsomes and human liver microsomes. Samples were analyzed using high performance liquid chromatography (Alliance 2695, Waters, Milford, Mass.). […] At a constant flow rate (0.7 ml/min), a linear gradient from 20 to 65% B was run over 3 min, held 0.8 min and a second gradient until 95% of B was run over 2 min and then re-equilibrated to 20% B over 2 min. The effluent from the HPLC system (Alliance 2695) was connected directly to a fluorescence detector (Waters, Milford, Mass.) using an excitation wavelength of […] and an emission of 460 nm. […] Determination of the glucuronidation rates obtained with other substrates was performed as currently known in the art.
Microsomal fractions from HEK293 (40 to 60 μg) were added to a reaction mixture (100 μL) containing 50 mM Tris-HCl, pH 7.3, 10 mM MgCl2, 100 μg/mL phosphatidylcholine and 2 mM UDP-glucuronic acid. […] Commercially available human liver microsomes (Human Cell Culture Center Inc., Laurel, Md.) were incubated in the same conditions for all experiments. Time-course experiments were performed to determine the linearity of the glucuronidation reaction. For the determination of Vmax and Km. HEK293 cells stably expressing UGT1A9 enzymes were incubated in the presence of various concentrations of SN-38 ranging from 0.1 to 200 μM and incubated for 30 min as described above whereas UGT1A7 membranes preparations were incubated for 3 hours. […] For the detection of SN-38 and its glucuronide (SN-38G), 10 μL samples were injected in a liquid chromatographic system (HPLC) coupled to fluorescence detector as described below.
A HPLC method was developed to quantify the rates of SN-38 glucuronidation from the various microsomal fractions under study. […] The column was connected to a fluorescence detector model 474 (Waters, Milford, Mass.) and the molecules were excited at a wavelength of 370 nm and an emission of 425 nm.

human UGT1A9*3 = biological target: T2, human UGT1A9*3 (Homo sapiens, UniProt O60656, M33T); experiment: Glucuronidation by microsomes of HEK-293 cells stably expressing UGT1A9*3
T2 sequence (O60656 26-530 M33T): T1 sequence (O60656 26-530) with M8T
Protocol: as §1, §2
Microsomal fractions from HEK293 (40 to 60 μg) were added to a reaction mixture (100 μL) containing 50 mM Tris-HCl, pH 7.3, 10 mM MgCl2, 100 μg/mL phosphatidylcholine and 2 mM UDP-glucuronic acid. […] Commercially available human liver microsomes (Human Cell Culture Center Inc., Laurel, Md.) were incubated in the same conditions for all experiments. Time-course experiments were performed to determine the linearity of the glucuronidation reaction. For the determination of Vmax and Km. HEK293 cells stably expressing UGT1A9 enzymes were incubated in the presence of various concentrations of SN-38 ranging from 0.1 to 200 μM and incubated for 30 min as described above whereas UGT1A7 membranes preparations were incubated for 3 hours. […] Reactions with SN-38 were stopped by the addition of 200 μL MeOH+1% HCl 2N, followed by centrifugation at 14000×g for 10 minutes. The supernatants were filtered through a 0.22 μm membrane and 100 μL of water was added to the filtrate. For the detection of SN-38 and its glucuronide (SN-38G), 10 μL samples were injected in a liquid chromatographic system (HPLC) coupled to fluorescence detector as described below.
A HPLC method was developed to quantify the rates of SN-38 glucuronidation from the various microsomal fractions under study. The HPLC system used was an Alliance 2695 (Waters, Milford, Mass.) equipped with a 50×3.2 mm Colombus C18 column (Phenomenex, Torrance, Calif.). […] Then a second gradient ranging from 65% to 95% solvent B was generated during the following 2 min. Finally, the column was re-equilibrated to 20% solvent B for 2 min. The column was connected to a fluorescence detector model 474 (Waters, Milford, Mass.) and the molecules were excited at a wavelength of 370 nm and an emission of 425 nm.

[1] = threonine at position 33, versus UGT1A9*1

CCc1c2c(nc3ccc(O)cc13)-c1cc3c(c(=O)n1C2)COC(=O)[C@]3(O)CC [SN-38, 7-ethyl-10-hydroxycamptothecin]
Vmax (human UGT1A9*1; 0.1 to 200 μM, mean±SD): 316.34±52.03 pmol/min/mg protein | Km (human UGT1A9*1; Table 5): 3.03 ± 0.72 µM | Vmax (human UGT1A9*1; Table 5): 316.34 ± 52.03 | Km (human UGT1A9*1; read-out: Apparent Km, 0.1 to 200 μM, mean±SD, Lineweaver-Burk): 3.03 µM and 3.02 µM | residual activity compared to the wild type enzyme (SN-38G formation) (human UGT1A9*3; 5 μM of SN-38): 3.8% | Vmax values lower for UGT1A9*3 compared with UGT1A9*1 (human UGT1A9*3; SN-38 glucuronidation): about 26 times | Vmax (human UGT1A9*3; SN-38 glucuronidation, 0.1 to 200 μM, mean±SD): 11.89±2.61 pmol/min/mg protein | Km (human UGT1A9*3; SN-38 glucuronidation, Table 5): 3.21 ± 0.95 µM | Vmax (human UGT1A9*3; SN-38 glucuronidation, Table 5): 15.50 ± 8.40 | SN-38 glucuronidating activity of the allele (in words) (human UGT1A9*3; in vitro functional genomic assays): low | Km (human UGT1A9*3; read-out: Apparent Km, SN-38 glucuronidation, 0.1 to 200 μM, mean±SD, Lineweaver-Burk): 3.21 ± 0.95 µM | decrease of glucuronidation rate (human UGT1A9*3; [1]): approximately 20 folds | decreased conjugation rate for SN-38 (human UGT1A9*3; [1]): 96.3% | effect of codon 33 variation on affinity of the protein for the substrate (in words) (human UGT1A9*3; versus UGT1A9*1): does not affect significantly
